Reference: US11034648B2, “Cystobactamide derivatives” (priority 2017, dated 2021)
≈ marks a conversion by molar mass, not a printed value.

Legend:
Assay type in all cases: cell-based
E. coli ΔtolC = assay: microbe, parasite or virus in culture; details: Escherichia coli, 16 h, read-out: MIC E. coli ΔtolC, small panel, Tables 1a/1b; no visual growth after approx. 16 h
Procedure: (§1) Cystobactamid derivatives synthesized were tested against relevant Gram negative and positive bacteria of clinical interest. Experimental procedures used for the biological characterization of the compounds are the same as previously described in WO 2016/082934.
(§2) Bacterial strains used in susceptibility assays (minimum inhibitory concentration, MIC) were either part of our internal strain collection or purchased from the German Collection of Microorganisms and Cell Cultures (Deutsche Sammlung von Mikroorganismen und Zellkulturen, DSMZ) and the American Type Culture Collection (ATCC). The susceptible E. coli strain (WT) and fluoroquinolone-resistant mutants E. coli WT-3 and WT-III were kindly provided by Prof Dr. P. Heisig, Pharmaceutical Biology and Microbiology, University of Hamburg, Germany. The efflux-deficient strain P. aeruginosa ΔmexAB was kindly provided by Prof Dr. S. Häußler, Institute for Molecular Bacteriology, TWINCORE, Hannover, Germany. All compounds were prepared as DMSO stocks and MIC values were determined in standard microbroth dilution assays in 96-well MTPs as described in Baumann et al., Angew Chem Int Ed Engl. 2014; 53(52):14605-9. In brief, overnight cultures of bacteria were diluted in either tryptic soy broth (TSB: 1.7% peptone casein, 0.3% peptone soymeal, 0.25% glucose, 0.5% NaCl, 0.25% K2HPO4; pH 7.3; S. pneumoniae and E. faecalis) or cation-adjusted Müller-Hinton Broth (BBL™, BD; all other bacteria) and adjusted to 10^4-10^6 cfu/mL. Bacteria were grown in the presence of the derivatives in serial dilution for approx. 16 h at 30-37° C. MIC values were determined and were defined as the antibiotic concentration at which no visual growth of bacteria was observed.

P. aeruginosa ΔmexAB = assay: microbe, parasite or virus in culture; details: Pseudomonas aeruginosa, 16 h, read-out: MIC P. aeruginosa ΔmexAB, efflux-deficient strain; small panel, Tables 1a/1b
Procedure: as §1, §2

E. coli WT DSM-1116 = assay: MIC, microbroth dilution susceptibility assay; details: Escherichia coli, DSM1116; small panel, Tables 1a/1b; no visual growth after approx. 16 h; read-out: MIC E. coli WT DSM-1116
Procedure: as §1, §2

S. aureus Newman = assay: MIC, microbroth dilution susceptibility assay; details: Staphylococcus aureus, NEWMAN; small panel, Tables 1a/1b; read-out: MIC S. aureus Newman
Procedure: as §1, §2

P. aeruginosa WT PA14 = assay: MIC, microbroth dilution susceptibility assay; details: Pseudomonas aeruginosa, PA14, small panel, Tables 1a/1b; read-out: MIC P. aeruginosa WT PA14
Procedure: as §1, §2

Row | Compound | MIC (E. coli ΔtolC) | MIC (P. aeruginosa ΔmexAB) | MIC (E. coli WT DSM-1116) | MIC (S. aureus Newman) | MIC (P. aeruginosa WT PA14)
1 | CC(C)Oc1c(NC(=O)c2ccc(NC(=O)[C@H](CC(N)=O)NC(=O)c3ccc(NC(=O)c4ccc(S(C)(=O)=O)cc4)cc3)cc2)ccc(C(=O)Nc2ccc(C(=O)O)cc2)c1O [Compound 56, (S)-4-(4-(4-(4-amino-2-(4-(4-(methylsulfonyl)benzamido)benzamido)-4-oxobutanamido)benzamido)-2-hydroxy-3-isopropoxybenzamido)benzoic acid] | < 0.03 µg/mL | > 64 µg/mL | 2 µg/mL (≈ 2.31 µM) | > 64 µg/mL | > 64 µg/mL
2 | CC(C)Oc1c(NC(=O)c2ccc(NC(=O)[C@H](CC(N)=O)NC(=O)c3ccc(NC(=O)c4ccc5c(c4)COC5=O)cc3)cc2)ccc(C(=O)Nc2ccc(C(=O)O)cc2)c1O [Compound 57, (S)-4-(4-(4-(4-amino-4-oxo-2-(4-(1-oxo-1,3-dihydroisobenzofuran-5-carboxamido)benzamido)butanamido)benzamido)-2-hydroxy-3-isopropoxybenzamido)benzoic acid] | < 0.03 µg/mL | 1 µg/mL (≈ 1.19 µM) | < 0.03 µg/mL | 1 µg/mL (≈ 1.19 µM) | > 64 µg/mL
3 | C/C(=C\c1ccc(C#N)cc1)C(=O)Nc1ccc(C(=O)N[C@@H](CC(N)=O)C(=O)Nc2ccc(C(=O)Nc3ccc(C(=O)Nc4ccc(C(=O)O)cc4)c(O)c3OC(C)C)cc2)cc1 [Compound 58, (S,E)-4-(4-(4-(4-amino-2-(4-(3-(4-cyanophenyl)-2-methylacrylamido)benzamido)-4-oxobutanamido)benzamido)-2-hydroxy-3-isopropoxybenzamido)benzoic acid] | < 0.03 µg/mL | 0.25 µg/mL (≈ 0.293 µM) | 0.125 µg/mL (≈ 0.147 µM) | 0.06 µg/mL (≈ 0.0704 µM) | 1 µg/mL (≈ 1.17 µM)
4 | CC(C)COc1c(NC(=O)c2ccc(NC(=O)[C@H](CC(N)=O)NC(=O)c3ccc(NC(=O)c4ccc([N+](=O)[O-])cc4)cc3)cc2)ccc(C(=O)Nc2ccc(C(=O)O)cc2)c1O [Compound 65, (S)-4-(4-(4-(4-amino-2-(4-(4-nitrobenzamido)benzamido)-4-oxobutanamido)benzamido)-2-hydroxy-3-isobutoxybenzamido)benzoic acid] | > 64 µg/mL | > 64 µg/mL | > 64 µg/mL | 1 µg/mL (≈ 1.18 µM) | > 64 µg/mL
5 | CC(C)Oc1cc(C(=O)Nc2ccc(C(=O)O)cc2)ccc1NC(=O)c1ccc(NC(=O)[C@H](CC(N)=O)NC(=O)c2ccc(NC(=O)c3ccc([N+](=O)[O-])cc3)cc2)cc1 [Compound 69, (S)-4-(4-(4-(4-amino-2-(4-(4-nitrobenzamido)benzamido)-4-oxobutanamido)benzamido)-3-isopropoxybenzamido)benzoic acid] | 0.06 µg/mL (≈ 0.0735 µM) | 1 µg/mL (≈ 1.23 µM) | > 64 µg/mL | > 64 µg/mL | > 64 µg/mL
6 | CC(C)Oc1c(NC(=O)c2ccc(NC(=O)[C@H](CC(N)=O)NC(=O)c3ccc(NC(=O)c4ccc([N+](=O)[O-])cc4)cc3)cc2)ccc(C(=O)Nc2ccc(C(N)=O)cc2)c1O [Compound 78, (S)—N1-(4-((4-((4-carbamoylphenyl)carbamoyl)-3-hydroxy-2-isopropoxyphenyl)carbamoyl)phenyl)-2-(4-(4-nitrobenzamido)benzamido)succinamide] | ≤ 0.03 µg/mL | > 64 µg/mL | 32 µg/mL (≈ 38.5 µM) | 64 µg/mL (≈ 77 µM) | > 64 µg/mL
7 | CC(C)Oc1c(NC(=O)c2ccc(NC(=O)[C@H](CC(N)=O)NC(=O)c3ccc(NC(=O)c4ccc(C#N)cc4)cc3)cc2)ccc(C(=O)Nc2ccn(C)c2)c1O [Compound 87, (S)-2-(4-(4-cyanobenzamido)benzamido)-N1-(4-((3-hydroxy-2-isopropoxy-4-((1-methyl-1H-pyrrol-3-yl)carbamoyl)phenyl)carbamoyl)phenyl)succinamide] | < 0.03 µg/mL | > 64 µg/mL | > 64 µg/mL | > 64 µg/mL | > 64 µg/mL
8 | CC(C)Oc1c(NC(=O)c2ccc(NC(=O)[C@H](CC(N)=O)NC(=O)c3ccc(NC(=O)c4ccc(C#N)cc4)cc3)cc2)ccc(C(=O)Nc2cc(C(=O)O)n(C)c2)c1O [Compound 88, (S)-4-(4-(4-(4-amino-2-(4-(4-cyanobenzamido)benzamido)-4-oxobutanamido)benzamido)-2-hydroxy-3-isopropoxybenzamido)-1-methyl-1H-pyrrole-2-carboxylic acid] | < 0.03 µg/mL | 8 µg/mL (≈ 9.82 µM) | 0.5 µg/mL (≈ 0.614 µM) | 64 µg/mL (≈ 78.5 µM) | > 64 µg/mL
9 | CC(C)Oc1c(NC(=O)c2ccc(NC(=O)[C@H](CC(N)=O)NC(=O)c3ccc(NC(=O)c4ccc(C#N)cc4)cc3)cc2)ccc(C(=O)NCc2ccc(C(=O)O)cc2)c1O [Compound 89, (S)-4-((4-(4-(4-amino-2-(4-(4-cyanobenzamido)benzamido)-4-oxobutanamido)benzamido)-2-hydroxy-3-isopropoxybenzamido)methyl)benzoic acid] | 0.25 µg/mL (≈ 0.303 µM) | > 64 µg/mL | > 64 µg/mL | > 64 µg/mL | > 64 µg/mL
10 | CC(C)Oc1c(NC(=O)c2ccc(NC(=O)[C@H](CC(N)=O)NC(=O)c3ccc(NC(=O)c4ccc(C#N)cc4)cc3)cc2)ccc(C(=O)Nc2cccc(C(=O)O)c2)c1O [Compound 90, (S)-3-(4-(4-(4-amino-2-(4-(4-cyanobenzamido)benzamido)-4-oxobutanamido)benzamido)-2-hydroxy-3-isopropoxybenzamido)benzoic acid] | 0.03 µg/mL (≈ 0.037 µM) | > 64 µg/mL | 0.5 µg/mL (≈ 0.616 µM) | 2 µg/mL (≈ 2.46 µM) | > 64 µg/mL
11 | CC(C)Oc1c(NC(=O)c2ccc(NC(=O)[C@H](CC(N)=O)NC(=O)c3ccc(NC(=O)c4ccc(C#N)cc4)cc3)cc2)ccc(C(=O)NC2CCNCC2)c1O [Compound 91, (S)-2-(4-(4-cyanobenzamido)benzamido)-N1-(4-((3-hydroxy-2-isopropoxy-4-(piperidin-4-ylcarbamoyl)phenyl)carbamoyl)phenyl)succinamide] | > 64 µg/mL | > 64 µg/mL | > 64 µg/mL | > 64 µg/mL | > 64 µg/mL
12 | CC(C)Oc1c(NC(=O)c2ccc(NC(=O)[C@H](CC(N)=O)NC(=O)c3ccc(NC(=O)c4ccc(C#N)cc4)cc3)cc2)ccc(C(=O)Nc2ccc(S(=O)(=O)O)cc2)c1O [Compound 92, (S)-4-(4-(4-(4-amino-2-(4-(4-cyanobenzamido)benzamido)-4-oxobutanamido)benzamido)-2-hydroxy-3-isopropoxybenzamido)benzenesulfonic acid] | 0.25 µg/mL (≈ 0.295 µM) | > 64 µg/mL | > 64 µg/mL | > 64 µg/mL | > 64 µg/mL
13 | CC(C)Oc1c(NC(=O)c2ccc(NC(=O)[C@H](CC(N)=O)NC(=O)c3ccc(NC(=O)c4ccc(C#N)cc4)cc3)cc2)ccc(C(=O)N[C@@H]2CONC2=O)c1O [Compound 93, (S)-2-(4-(4-cyanobenzamido)benzamido)-N1-(4-((3-hydroxy-2-isopropoxy-4-(((R)-3-oxoisoxazolidin-4-yl)carbamoyl)phenyl)carbamoyl)phenyl)succinamide] | 0.5 µg/mL (≈ 0.644 µM) | > 64 µg/mL | > 64 µg/mL | > 64 µg/mL | > 64 µg/mL
14 | CC(C)Oc1c(NC(=O)c2ccc(NC(=O)[C@H](CC(N)=O)NC(=O)c3ccc(NC(=O)c4ccc(C#N)cc4)cc3)cc2)ccc(C(=O)Nc2ccncc2)c1O [Compound 94, (S)-2-(4-(4-cyanobenzamido)benzamido)-N1-(4-((3-hydroxy-2-isopropoxy-4-(pyridin-4-ylcarbamoyl)phenyl)carbamoyl)phenyl)succinamide] | 0.03 µg/mL (≈ 0.039 µM) | > 64 µg/mL | > 64 µg/mL | > 64 µg/mL | > 64 µg/mL
15 | C/C(=C/c1ccc(C#N)cc1)C(=O)Nc1ccc(C(=O)N[C@@H](CC(N)=O)C(=O)Nc2ccc(C(=O)Nc3ccc(C(=O)Nc4ccc(C(=O)O)cc4)c(O)c3OC(C)C)cc2)cc1 [Compound 122, (S,Z)-4-(4-(4-(4-amino-2-(4-(3-(4-cyanophenyl)-2-methylacrylamido)benzamido)-4-oxobutanamido)benzamido)-2-hydroxy-3-isopropoxybenzamido)benzoic acid] | 0.25 µg/mL (≈ 0.293 µM) | > 64 µg/mL | 1 µg/mL (≈ 1.17 µM) | 8 µg/mL (≈ 9.39 µM) | > 64 µg/mL
16 | CO[C@@H](C(N)=O)[C@H](NC(=O)c1ccc(NC(=O)/C(C)=C/c2ccc(C#N)cc2)cc1)C(=O)Nc1ccc(C(=O)Nc2ccc(C(=O)Nc3ccc(C(=O)O)cc3)c(O)c2OC(C)C)cc1 [Compound 123, 4-(4-(4-((2S,3R)-4-amino-2-(4-((E)-3-(4-cyanophenyl)-2-methylacrylamido)benzamido)-3-methoxy-4-oxobutanamido)benzamido)-2-hydroxy-3-isopropoxybenzamido)benzoic acid] | 0.5 µg/mL (≈ 0.567 µM) | 2 µg/mL (≈ 2.27 µM) | 1 µg/mL (≈ 1.13 µM) | 4 µg/mL (≈ 4.54 µM) | 8 µg/mL (≈ 9.07 µM)
